Measurements taken from patent US8440660B2 (Santen Pharmaceutical Co., Ltd., priority 2006, dated 2013).

What follows are molecules tested against T1, Glucocorticoid Receptor (GR) (Homo sapiens, UniProt P04150) (assay: GR receptor competitor assay by fluorescence polarization (Invitrogen GR competitor assay kit, cat No. P2816)). Conditions: 20 μM test compound solution, 10 μL per well plus 5 μL 4×GS1 and 5 μL 4×GR solution; recombinant human GR; 2 to 4 hours at room temperature; a ratio of 100% or more is indicated by 100%; read-out: GR Binding ratio (%).
T1 construct: purchased Invitrogen P2816
T1 sequence (P04150 1-777): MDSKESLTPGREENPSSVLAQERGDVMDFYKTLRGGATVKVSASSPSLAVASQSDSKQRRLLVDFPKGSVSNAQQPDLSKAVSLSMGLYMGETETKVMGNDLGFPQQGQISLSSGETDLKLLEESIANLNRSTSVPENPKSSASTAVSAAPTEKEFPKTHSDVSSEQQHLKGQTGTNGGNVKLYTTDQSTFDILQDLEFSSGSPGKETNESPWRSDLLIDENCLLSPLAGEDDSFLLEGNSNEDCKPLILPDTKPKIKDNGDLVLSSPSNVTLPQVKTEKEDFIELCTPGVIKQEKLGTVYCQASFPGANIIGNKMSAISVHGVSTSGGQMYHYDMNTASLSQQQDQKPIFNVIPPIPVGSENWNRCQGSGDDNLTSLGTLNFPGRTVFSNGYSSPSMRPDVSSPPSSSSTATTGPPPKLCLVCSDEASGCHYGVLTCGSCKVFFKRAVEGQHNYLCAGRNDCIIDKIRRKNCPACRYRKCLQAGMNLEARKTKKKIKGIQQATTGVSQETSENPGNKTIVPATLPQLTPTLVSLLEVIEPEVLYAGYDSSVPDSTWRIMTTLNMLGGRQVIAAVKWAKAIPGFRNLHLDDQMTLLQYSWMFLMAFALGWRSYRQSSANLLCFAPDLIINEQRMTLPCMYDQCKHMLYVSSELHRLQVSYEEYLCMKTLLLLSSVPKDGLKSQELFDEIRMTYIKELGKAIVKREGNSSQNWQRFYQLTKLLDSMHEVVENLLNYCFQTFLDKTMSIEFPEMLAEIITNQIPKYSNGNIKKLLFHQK
Experimental: A detailed explanation of this matter will be described in the section of “Pharmacological Test” in Examples described below. In order to find the usefulness of the present compound as a pharmaceutical, a glucocorticoid receptor competitor assay was carried out by a fluorescence polarization method by using a glucocorticoid receptor competitor assay kit (manufactured by Invitrogen, cat No P2816) to study the glucocorticoid receptor binding activity of the present compound.
1. Evaluation Test for Binding Activity to Glucocorticoid Receptor (Hereinafter Referred to as “GR”)
In order to evaluate a binding activity to GR, a receptor competitor assay was carried out by a fluorescence polarization method. In the assay, a GR competitor assay kit (manufactured by Invitrogen, cat No. P2816) was used, and a procedure was carried out according to the protocol attached to the kit. Hereinafter, the specific method will be described.
(Preparation of Reagents)
GR screening buffer: A buffer containing 10 mM potassium phosphate (pH 7.4), 20 mM sodium molybdate (Na2MoO4), 0.1 mM ethylene diamine tetraacetic acid (EDTA), 5 mM dithiothreitol (DTT), 0.1 mM stabilizing peptide and 2% dimethylsulfoxide was prepared.
4×GS1 solution: Fluormone™ GS1, which is a fluorescent glucocorticoid ligand, was diluted with GR screening buffer, whereby a 4 nM solution was prepared.
4×GR solution: Recombinant human GR was diluted with GR screening buffer, whereby a 16 nM solution was prepared.
(Preparation of Test Compound Solution)
After a test compound was dissolved in dimethylsulfoxide, the resulting solution was diluted with GR screening buffer, whereby a 20 μM test compound solution was prepared.
(Test Method and Measurement Method)
1) The test compound solution was added in an amount of 10 μL into each well of a 384-well plate, and then, 4×GS1 solution and 4×GR solution were added in an amount of 5 μL into each well, respectively.
2) The plate was incubated in a dark place at room temperature for 2 to 4 hours.
3) By using a multimode plate reader, Analyst™ HT (manufactured by LJL Biosystems), fluorescence polarization of each well was measured. As the blank, a well containing GR screening buffer in place of the test compound and 4×GS1 solution was used.
4) The same procedure as that in the above 1) to 3) was carried out except that GR screening buffer was used in place of the test compound solution, and the obtained result was taken as the negative control.
5) The same procedure as that in the above 1) to 3) was carried out except that 2 mM dexamethasone was used in place of the test compound solution, and the obtained result was taken as the positive control.
(Calculation Equation of GR Binding Ratio)
A GR binding ratio (%) was calculated from the following equation. GR binding ratio (%)=100×[1−(fluorescence polarization of test compound solution−fluorescence polarization of positive control solution)/(fluorescence polarization of negative control solution−fluorescence polarization of positive control solution)] (Test Results and Discussion)
Work on `COc1ccc([N+](=O)[O-])cc1OCc1c(-c2ccc(OC(=O)c3ccccc3OC)cc2OC)ccc2c1C(C)=CC(C)(C)N2` [Compound 1-102, 6-[2-Methoxy-4-(2-methoxybenzoyloxy)phenyl]-5-(2-methoxy-5-nitrophenoxymethyl)-2,2,4-trimethyl-1,2-dihydroquinoline] yielded an inhibition at 10 µM of 100%.
Molecule `COc1cc(OC(=O)Cc2cccnc2)ccc1-c1ccc2c(c1COc1cc(F)ccc1C)C(C)=CC(C)(C)N2` [Compound 1-64, 5-(5-Fluoro-2-methylphenoxymethyl)-6-[2-methoxy-4-(pyridin-3-ylacetoxy)phenyl]-2,2,4-trimethyl-1,2-dihydroquinoline] has an inhibition at 10 µM of 100%.
In the case of `COc1cc(OC(=O)c2ccccc2F)ccc1-c1ccc2c(c1COc1cc(F)ccc1C)C(C)=CC(C)(C)N2` [Compound 1-59, 6-[4-(2-Fluorobenzoyloxy)-2-methoxyphenyl]-5-(5-fluoro-2-methylphenoxymethyl)-2,2,4-trimethyl-1,2-dihydroquinoline], the inhibition at 10 µM was 100%.
`CCC(=O)Oc1ccc(-c2ccc3c(c2COc2cc(F)ccc2C)C(C)=CC(C)(C)N3)c(OC)c1` [Compound 1-16, 5-(5-Fluoro-2-methylphenoxymethyl)-6-(2-methoxy-4-propionyloxyphenyl)-2,2,4-trimethyl-1,2-dihydroquinoline] gave an inhibition at 10 µM of 100%.
For `COc1cc(OC(=O)Nc2ccc(C#N)cc2)ccc1-c1ccc2c(c1COc1cc(F)ccc1C)C(C)=CC(C)(C)N2` [Compound 6-17, 6-[4-(4-Cyanophenylaminocarbonyloxy)-2-methoxyphenyl]-5-(5-fluoro-2-methylphenoxymethyl)-2,2,4-trimethyl-1,2-dihydroquinoline], the inhibition at 10 µM was 90%.
With `COc1cc(OC(=O)c2ccccc2OC(C)=O)ccc1-c1ccc2c(c1COc1cc(F)ccc1C)C(C)=CC(C)(C)N2` [Compound 1-50, 6-[4-(2-Acetoxybenzoyloxy)-2-methoxyphenyl]-5-(5-fluoro-2-methylphenoxymethyl)-2,2,4-trimethyl-1,2-dihydroquinoline] the inhibition at 10 µM was 97%.
`COc1cc(OC(=O)c2ccnc(Cl)c2)ccc1-c1ccc2c(c1COc1cc(F)ccc1C)C(C)=CC(C)(C)N2` [Compound 1-90, 6-[4-(2-Chloropyridin-4-ylcarbonyloxy)-2-methoxyphenyl]-5-(5-fluoro-2-methylphenoxymethyl)-2,2,4-trimethyl-1,2-dihydroquinoline] showed an inhibition at 10 µM of 95%.
`COc1cc(OC(=O)N2CCOCC2)ccc1-c1ccc2c(c1COc1cc(F)ccc1C)C(C)=CC(C)(C)N2` [Compound 6-18, 5-(5-Fluoro-2-methylphenoxymethyl)-6-[2-methoxy-4-(morpholin-4-ylcarbonyloxy)phenyl]-2,2,4-trimethyl-1,2-dihydroquinoline] gave an inhibition at 10 µM of 100%.
With `COc1cc(OC(=O)Cc2ccccc2)ccc1-c1ccc2c(c1COc1cc(F)ccc1C)C(C)=CC(C)(C)N2` [Compound 1-21, 5-(5-Fluoro-2-methylphenoxymethyl)-6-(2-methoxy-4-phenylacetoxyphenyl)-2,2,4-trimethyl-1,2-dihydroquinoline] the inhibition at 10 µM was 100%.
`CCCC(=O)Oc1ccc(-c2ccc3c(c2COc2cc(F)ccc2C)C(C)=CC(C)(C)N3)c(OC)c1` [Compound 1-14, 6-(4-Butyryloxy-2-methoxyphenyl)-5-(5-fluoro-2-methylphenoxymethyl)-2,2,4-trimethyl-1,2-dihydroquinoline] was tested, and the inhibition at 10 µM was 100%.
Work on `COc1cc(OC(=O)c2ccc(C)o2)ccc1-c1ccc2c(c1COc1cc(F)ccc1C)C(C)=CC(C)(C)N2` [Compound 1-62, 5-(5-Fluoro-2-methylphenoxymethyl)-6-[2-methoxy-4-(5-methylfuran-2-ylcarbonyloxy)phenyl]-2,2,4-trimethyl-1,2-dihydroquinoline] yielded an inhibition at 10 µM of 100%.
`COc1ccccc1OC(=O)Oc1ccc(-c2ccc3c(c2COc2cc(F)ccc2C)C(C)=CC(C)(C)N3)c(OC)c1` [Compound 5-5, 5-(5-Fluoro-2-methylphenoxymethyl)-6-[2-methoxy-4-(2-methoxyphenoxycarbonyloxy)phenyl]-2,2,4-trimethyl-1,2-dihydroquinoline] gave an inhibition at 10 µM of 93%.
Work on `COc1cc(OS(=O)(=O)CCC(F)(F)F)ccc1-c1ccc2c(c1COc1cc(F)ccc1C)C(C)=CC(C)(C)N2` [Compound 4-30, 5-(5-Fluoro-2-methylphenoxymethyl)-6-[2-methoxy-4-(3,3,3-trifluoroproprylsulfonyloxy)phenyl]-2,2,4-trimethyl-1,2-dihydroquinoline] yielded an inhibition at 10 µM of 100%.
For `COc1cc(OC(=O)c2cccs2)ccc1-c1ccc2c(c1COc1cc(F)ccc1C)C(C)=CC(C)(C)N2` [Compound 1-31, 5-(5-Fluoro-2-methylphenoxymethyl)-6-[2-methoxy-4-(thiophen-2-ylcarbonyloxy)phenyl]-2,2,4-trimethyl-1,2-dihydroquinoline], the inhibition at 10 µM was 100%.
In the case of `COc1cc(OC(=O)c2ccccc2)ccc1-c1ccc2c(c1COc1cc(F)ccc1C)C(C)=CC(C)(C)N2` [Compound 1-1, 6-(4-Benzoyloxy-2-methoxyphenyl)-5-(5-fluoro-2-methylphenoxymethyl)-2,2,4-trimethyl-1,2-dihydroquinoline], the inhibition at 10 µM was 94%.
`COc1cc(OC(=O)c2cn(C(=O)OC(C)(C)C)cn2)ccc1-c1ccc2c(c1COc1cc(F)ccc1C)C(C)=CC(C)(C)N2` [Compound 1-53, 6-[4-(1-t-Butoxycarbonylimidazol-4-ylcarbonyloxy)-2-methoxyphenyl]-5-(5-fluoro-2-methylphenoxymethyl)-2,2,4-trimethyl-1,2-dihydroquinoline] was tested, and the inhibition at 10 µM was 100%.
In the case of `COc1cc(OC(=O)Nc2ccccc2Cl)ccc1-c1ccc2c(c1COc1cc(F)ccc1C)C(C)=CC(C)(C)N2` [Compound 6-3, 6-[4-(2-Chlorophenylaminocarbonyloxy)-2-methoxyphenyl]-5-(5-fluoro-2-methylphenoxymethyl)-2,2,4-trimethyl-1,2-dihydroquinoline], the inhibition at 10 µM was 98%.
`COc1cc(OC(=O)c2ccccc2Cl)ccc1-c1ccc2c(c1COc1cc(F)ccc1C)C(C)=CC(C)(C)N2` [Compound 1-11, 6-[4-(2-Chlorobenzoyloxy)-2-methoxyphenyl]-5-(5-fluoro-2-methylphenoxymethyl)-2,2,4-trimethyl-1,2-dihydroquinoline] gave an inhibition at 10 µM of 100%.
Molecule `COc1cccc(C(=O)Oc2ccc(-c3ccc4c(c3COc3cc(F)ccc3C)C(C)=CC(C)(C)N4)c(OC)c2)c1` [Compound 1-7, 5-(5-Fluoro-2-methylphenoxymethyl)-6-[2-methoxy-4-(3-methoxybenzoyloxy)phenyl]-2,2,4-trimethyl-1,2-dihydroquinoline] has an inhibition at 10 µM of 100%.
For `COc1cc(OC(=O)C(C)C)ccc1-c1ccc2c(c1COc1cc(F)ccc1C)C(C)=CC(C)(C)N2` [Compound 1-20, 5-(5-Fluoro-2-methylphenoxymethyl)-6-(4-isobutyryloxy-2-methoxyphenyl)-2,2,4-trimethyl-1,2-dihydroquinoline], the inhibition at 10 µM was 100%.
